The subject of this data set is CCRIS mutagenicity, Ames/micronucleus/aberration tests. Briefly: CCRIS mutagenicity studies.

Active and inactive are the calls of the source. No rule for the calls is given here.

Turning to `CC(=O)N(O)c1ccc2c(c1)Cc1ccccc1-2`, the mutagenic call reads like this: (Test System: AMES SALMONELLA TYPHIMURIUM, Strain/Indicator: TA98, Metabolic Activation: GUINEA PIG, LIVER, HEPATOCYTES) “active; positive”; (Test System: AMES SALMONELLA TYPHIMURIUM, Strain/Indicator: TA98, Metabolic Activation: GUINEA PIG, LIVER, S-9, Method: STANDARD PLATE) “active; positive”; (Test System: AMES SALMONELLA TYPHIMURIUM, Strain/Indicator: TA98, Metabolic Activation: HAMSTER, LIVER, HEPATOCYTES) “active; positive”; (Test System: AMES SALMONELLA TYPHIMURIUM, Strain/Indicator: TA98, Metabolic Activation: HAMSTER, LIVER, S-9, Method: STANDARD PLATE) “active; positive”; (Test System: AMES SALMONELLA TYPHIMURIUM, Strain/Indicator: TA98, Metabolic Activation: HUMAN, FETAL LIVER, S-9) “active; positive”; (Test System: AMES SALMONELLA TYPHIMURIUM, Strain/Indicator: TA98, Metabolic Activation: MOUSE, LIVER, HEPATOCYTES) “active; positive”. The mutagenic call is “active; positive” (Test System: AMES SALMONELLA TYPHIMURIUM, Strain/Indicator: TA98, Metabolic Activation: MOUSE, LIVER, S-9, Method: STANDARD PLATE); “active; positive” (Test System: AMES SALMONELLA TYPHIMURIUM, Strain/Indicator: TA98, Metabolic Activation: NONE, Method: STANDARD PLATE); “active; positive” (Test System: AMES SALMONELLA TYPHIMURIUM, Strain/Indicator: TA98, Metabolic Activation: RABBIT, LIVER, MICROSOMAL FRACTION, Method: STANDARD PLATE); “active; positive” (Test System: AMES SALMONELLA TYPHIMURIUM, Strain/Indicator: TA98, Metabolic Activation: RABBIT, LUNG, MICROSOMAL FRACTION, Method: STANDARD PLATE); “active; positive” (Test System: AMES SALMONELLA TYPHIMURIUM, Strain/Indicator: TA98, Metabolic Activation: RAT, LIVER, HEPATOCYTES); “active; positive” (Test System: AMES SALMONELLA TYPHIMURIUM, Strain/Indicator: TA98, Metabolic Activation: RAT, LIVER, S-9, AROCLOR 1254, Method: STANDARD PLATE). In addition, the mutagenic call by setting is: (Test System: AMES SALMONELLA TYPHIMURIUM, Strain/Indicator: TA98, Metabolic Activation: RAT, LIVER, S-9, Method: STANDARD PLATE) “active; positive”; (Test System: AMES SALMONELLA TYPHIMURIUM, Strain/Indicator: TA98, Metabolic Activation: V-79 CELL HOMOGENATE, Method: PREINCUBATION) “active; positive”; (Test System: AMES SALMONELLA TYPHIMURIUM, Strain/Indicator: TA1538, Metabolic Activation: NONE, Method: STANDARD PLATE) “active; positive”; (Test System: AMES SALMONELLA TYPHIMURIUM, Strain/Indicator: TA1538, Metabolic Activation: RAT, LIVER, S-9, AROCLOR 1254, Method: STANDARD PLATE) “active; positive”; (Test System: AMES SALMONELLA TYPHIMURIUM, Strain/Indicator: TA1538, Metabolic Activation: RAT, LIVER, S-9, KC500 OR PHENOBARBITAL, Method: LIQUID SUSPENSION) “active; positive”; (Test System: AMES SALMONELLA TYPHIMURIUM, Strain/Indicator: YG1012, Metabolic Activation: NONE, Method: PREINCUBATION) “active; positive”. Besides, the mutagenic call runs as follows: (Test System: AMES SALMONELLA TYPHIMURIUM, Strain/Indicator: YG1019, Metabolic Activation: NONE, Method: PREINCUBATION) “active; positive”; (Test System: AMES SALMONELLA TYPHIMURIUM, Strain/Indicator: YG1020, Metabolic Activation: NONE, Method: PREINCUBATION) “active; positive”; (Test System: AMES SALMONELLA TYPHIMURIUM, Strain/Indicator: YG1024, Metabolic Activation: NONE, Method: PREINCUBATION) “active; positive”; (Test System: CHINESE HAMSTER V-79, Strain/Indicator: V-79/6-THIOGUANINE, Metabolic Activation: NONE) “active; positive”; (Test System: CHINESE HAMSTER V-79, Strain/Indicator: V-79/8-AZAGUANINE, Metabolic Activation: NONE, Method: STANDARD PLATE) “active; positive”; (Test System: E. COLI, Strain/Indicator: WP2 UVRA, Metabolic Activation: NONE, Method: STANDARD PLATE) “inactive; negative”. The mutagenic call runs as follows: (Test System: UDS GUINEA PIG HEPATOCYTES, Strain/Indicator: THY INCORP, Metabolic Activation: NONE, Method: LIQUID SCINTILLATION COUNTING) “active; positive”; (Test System: UDS HAMSTER HEPATOCYTES, Strain/Indicator: THY INCORP, Metabolic Activation: NONE, Method: LIQUID SCINTILLATION COUNTING) “active; positive”; (Test System: UDS HUMAN CELLS, Strain/Indicator: THY INCORP (NON-S-PHASE), Metabolic Activation: RAT, LIVER, S-9, PHENOBARBITAL, Method: LIQUID SCINTILLATION COUNTING) “active; positive”; (Test System: UDS HUMAN FIBROBLASTS, Strain/Indicator: THY INCORP (NON-S-PHASE), Metabolic Activation: NONE, Method: AUTORADIOGRAPHY) “active; positive”; (Test System: UDS HUMAN FIBROBLASTS, Strain/Indicator: THY INCORP (NON-S-PHASE), Metabolic Activation: NONE, Method: LIQUID SCINTILLATION COUNTING) “active; positive”; (Test System: UDS HUMAN LYMPHOCYTES, Strain/Indicator: THY INCORP (NON-S-PHASE), Metabolic Activation: NONE, Method: LIQUID SCINTILLATION COUNTING) “active; positive”. The mutagenic call is “active; positive” (Test System: UDS MOUSE HEPATOCYTES, Strain/Indicator: THY INCORP, Metabolic Activation: NONE, Method: LIQUID SCINTILLATION COUNTING); “active; positive” (Test System: UDS RAT HEPATOCYTES, Strain/Indicator: THY INCORP, Metabolic Activation: NONE, Method: LIQUID SCINTILLATION COUNTING); “active; positive” (Test System: UDS RODENT HEPATOCYTES, Strain/Indicator: THY INCORP (NON-S-PHASE), Method: AUTORADIOGRAPHY); “active; positive” (Test System: UDS RODENT HEPATOCYTES, Strain/Indicator: THY INCORP (NON-S-PHASE), Method: LIQUID SCINTILLATION COUNTING).

On to `CO`, for which the mutagenic call by setting is: (Test System: AMES SALMONELLA TYPHIMURIUM, Strain/Indicator: TA98, Metabolic Activation: NONE, Method: PREINCUBATION) “inactive; negative”; (Test System: AMES SALMONELLA TYPHIMURIUM, Strain/Indicator: TA98, Metabolic Activation: RAT, LIVER, S-9, KC 500, Method: PREINCUBATION) “inactive; negative”; (Test System: AMES SALMONELLA TYPHIMURIUM, Strain/Indicator: TA100, Metabolic Activation: NONE, Method: PREINCUBATION) “inactive; negative”; (Test System: AMES SALMONELLA TYPHIMURIUM, Strain/Indicator: TA100, Metabolic Activation: RAT, LIVER, S-9, KC 500, Method: PREINCUBATION) “inactive; negative”; (Test System: AMES SALMONELLA TYPHIMURIUM, Strain/Indicator: TA1535, Metabolic Activation: NONE, Method: PREINCUBATION) “inactive; negative”; (Test System: AMES SALMONELLA TYPHIMURIUM, Strain/Indicator: TA1535, Metabolic Activation: RAT, LIVER, S-9, KC 500, Method: PREINCUBATION) “inactive; negative”. Also, the mutagenic call was “inactive; negative” (Test System: AMES SALMONELLA TYPHIMURIUM, Strain/Indicator: TA1537, Metabolic Activation: NONE, Method: PREINCUBATION); “inactive; negative” (Test System: AMES SALMONELLA TYPHIMURIUM, Strain/Indicator: TA1537, Metabolic Activation: RAT, LIVER, S-9, KC 500, Method: PREINCUBATION); “inactive; negative” (Test System: AMES SALMONELLA TYPHIMURIUM, Strain/Indicator: TA1538, Metabolic Activation: NONE, Method: PREINCUBATION); “inactive; negative” (Test System: AMES SALMONELLA TYPHIMURIUM, Strain/Indicator: TA1538, Metabolic Activation: RAT, LIVER, S-9, KC 500, Method: PREINCUBATION); “inactive; negative” (Test System: E. COLI, Strain/Indicator: WP2 UVRA, Metabolic Activation: NONE, Method: PREINCUBATION); “inactive; negative” (Test System: E. COLI, Strain/Indicator: WP2 UVRA, Metabolic Activation: RAT, LIVER, S-9, KC 500, Method: PREINCUBATION).

Values taken from PubChem BioAssay AID1259407 (Chemical Carcinogenesis Research Information System (CCRIS), 2018).
